Experimental data reported in patent US20250032581A1, “COMPOSITIONS AND ARTICLES COMPRISING AN ADNF POLYPEPTIDE” (RAMOT AT TEL-AVIV UNIVERSITY LTD., priority 2021, published 2025).

How the values were obtained:
Tyr mice [1] = test: Developmental milestone assessment, weight and length of Tyr mouse pups; assay type: in vivo
Experimental: Animals—Animals were housed under a 12-hour light/dark cycle, with food and water ad-libitum. Mouse pups were subcutaneously administrated with NAP [having an amino acid sequence NAPVSIPQ (SEQ ID NO: 2), 25 μg NAP/1 ml saline] as described (8, 12). At 21 days of age mice were administered daily intranasal NAP in vehicle solution (“DD”—7.5 mg/ml of NaCl, 1.7 mg/ml of citric acid, 3 mg/ml of disodium phosphate dihydrate, and 0.2 mg/ml of 50% benzalkonium chloride solution) (0.5 μg NAP/5p1 DD) (8, 9, 12, and U.S. Pat. No. 10,912,819 to Gozes). These mice continued to behavioral analysis as described hereinbelow. The noninvasive intranasal route was chosen as these experiments required daily handling and administration. Age (weeks) of mice during behavioral experiments (mean±SEM) was as follows: Catwalk—9.23±0.15, grooming—10±0.15, social approach—10.5±0.12, odor-discrimination—12.12±0.13, hanging-wire—13±0.14, hotplate—13.18±0.13. Group size was determined following previous experiments (12). Pups were randomly allocated to either the NAP or DD group according to sex and genotype. All procedures involving animals were conducted under the supervision and approval of the institutional animal care and use committee of Tel Aviv University and the Israeli Ministry of Health.
Developmental milestone assessment and fostering—This experiment included animals from 16 litters in 2 experimental batches. It was performed as previously described (12) with slight modifications. Experimenters were blinded to sex and genotype during experimental procedures. Sexes were grouped if no statistically significant sex differences were discovered.
Additional behavioral assessments— • Fostering: To enable daily handling necessary for developmental milestone assessment and drug treatment, Tyr pups were fostered by ICR females which are known to be excellent dams. Tyr pups were moved after birth to an ICR female mouse who gave birth up to 48 hours prior. ICR litter was culled according to the number of Tyr pups that were added. One day afterwards the remaining ICR pups were euthanized so only Tyr pups were left in the litter. • Pup litter distribution analysis: The genotyping results at p1 after placement with the foster mother was used for this measurement. […] The same day pups were randomized to either NAP or Saline treatment groups according to genotype and sex results and developmental milestone assessment was performed from p1 to p21. As animal randomization ended up with unequal male/female ratios for certain groups and no statistical differences were found between the sexes in any of the 4 treatment groups (T test), the sexes […], [That is except for eye opening, where a significant difference was observed between the sexes in the Tyr group (P=0.047, no significance in the other three treatment groups)]. Pup paws were tattooed using a 31-gauge needle and tattoo ink (Ketchum Manufacturing Co., catalog 329AA) for identification on P1 and, until P21, underwent daily measurements for length and weight and observation for eye opening. Pups were injected daily with NAP, 1 hour prior to the tests as previously described^1.
Briefly, for ear twitch reflex, a cotton tip was gently brushed against the tip of the ear three times, between postnatal days 7-15 or until the pup responded correctly for two consecutive days. For air righting reflex, the pup was held up-side down and released ˜10.5 cm above the cage, containing 5 cm of shavings. The test was performed between postnatal days 8-21 or until the pup landed on the shavings with all four paws, for two consecutive days. For surface righting reflex, pups were placed on their backs on a level surface, the test was performed between postnatal days 1-13 until the pups was able to right itself with all four paws on the surface in under a second for two consecutive days. For eye opening, mice were observed daily until both eyes were open (eyelids separated completely). […]

[2] = system: AT8 (hyperphosphorylated Tau); test: AT8 immunohistochemistry (hyperphosphorylated Tau); assay type: in vivo, mouse; conditions: WT males, data not shown
Experimental: AT8 Immunohistochemistry—experiment was performed as previously described (100). Mice were treated for 6 weeks with daily intranasal DD/NAP and were euthanized at 10.21±0.05 weeks of age.

Tyr mice [3] = test: Visual evoked potentials (VEP); assay type: in vivo, mouse; parameters: key to NAP efficacy: visual evoked potential/axonal transport: corrections by NAP treatment (+)
Experimental: VEP—5.72±0.52-week-old male mice were used for VEP measurements. Animals were treated for 3 days with 0.1 ml S.C saline, recorded, and then followed by 4 daily S.C doses of either 1 μg NAP (in 0.1 ml saline) or 0.1 ml saline followed by another VEP recording.

[4] = system: mice with the ASD-linked InsG3680 mutation (SHANK3); test: Social recognition test in the SHANK3 mouse model; assay type: in vivo; conditions: intranasal NAP
Experimental: To this end, mice with the ASD-linked InsG3680 mutation were used. Two behavioral assessments were performed on make mice: • 1) Open field behavior attesting to anxiety and depression (Open field behavioral assessment technology was previously described, e.g.); and • 2) Social recognition behavior, related to autistic traits (the social recognition test was previously described, e.g..
In the social recognition test, the results measured both time exploring and frequency exploring the mouse or cup, either directly or in the chamber where the mouse or cup only are present (FIG. 13).

BTBR mouse = test: Social recognition in the BTBR mouse; assay type: in vivo
[5] = adult patients; cited from earlier work
ADNP^+/− MOUSE = system: ADNP^+/− MOUSE; parameters: key: corrections by NAP treatment (+); conditions: Adnp+/− mouse (second symbol); cited from earlier work
[6] = cited from earlier work

CC[C@H](C)[C@H](NC(=O)[C@H](CO)NC(=O)[C@@H](NC(=O)[C@@H]1CCCN1C(=O)[C@H](C)NC(=O)[C@@H](N)CC(N)=O)C(C)C)C(=O)N1CCC[C@H]1C(=O)N[C@@H](CCC(N)=O)C(=O)O [NAP, NAPVSIPQ]
rooting reflex (Tyr mice [1]; Tyr mice, data not shown): induced rooting in Tyr mice
surface-righting, first day of acquisition (Tyr mice [1]; Tyr pups, daily s.c. NAP, WT 8.69±0.42, Tyr 10.14±0.36): 8.81 ± 0.33 days
air-righting, first day of acquisition (Tyr mice [1]; Tyr pups, daily s.c. NAP, WT 12.96±0.28, Tyr 15.29±0.15): 14.63 ± 0.38 days
body weight (Tyr mice [1]; WT female mice, data not shown): no effect observed on WT female mice
eye opening (Tyr mice [1]; WT females, data not shown): no NAP effect was observed in WT females
developmental milestones (Tyr mice [1]; WT littermates, data not shown): no effect on WT littermates except for the cliff aversion response
eye opening (Tyr mice [1]; female Tyr mice, Tyr 16±0.37, WT 14.93±0.43): 14.78 ± 0.46 days
eye opening (Tyr mice [1]; males, data not shown): No genotype/NAP effect was observed on males
AT8 positive cells [2]: did not display a NAP effect
VEP P3 AUC (Tyr mice [3]; Tyr males): significant NAP effect seen in the 300 and 3000 mcd intensities
NAP efficacy: visual evoked potential/axonal transport (Tyr mice [3]; Tyr mouse (first symbol)): +/+
social recognition: mouse vs. cup exploration [4]: normalization of behavior in the NAP-treated SHANK3 mouse model
social recognition (BTBR mouse): preference of the mouse, rather than the cup=object chamber
efficacy in clinical studies [5]: enhancement of cognitive function and functional activities of daily living
NAP efficacy: visual evoked potential/axonal transport (ADNP^+/− MOUSE): +/+
bioavailability / cell penetration [6]: bioavailable by endocytosis
